Test results: ChEMBL document CHEMBL1821645, “Synthesis and anticancer activity of (RS)-9-(2,3-dihydro-1,4-benzoxaheteroin-2-ylmethyl)-9H-purines” (Eur J Med Chem, 2011)
Calls of active or inactive are those of the source. The rule behind the calls is not given here.

What was measured:
[1] = biological target: Cellular tumor antigen p53 (Homo sapiens) (UniProt P04637); test: Induction of p53 activation in human MCF7 cells assessed as phosphorylation at Ser15 at 3 times IC50 after 4 to 36 hrs by Western blot analysis; assay type: cell-based
Cellular tumor antigen p53 (Homo sapiens), sequence (P04637 whole entry, looked up): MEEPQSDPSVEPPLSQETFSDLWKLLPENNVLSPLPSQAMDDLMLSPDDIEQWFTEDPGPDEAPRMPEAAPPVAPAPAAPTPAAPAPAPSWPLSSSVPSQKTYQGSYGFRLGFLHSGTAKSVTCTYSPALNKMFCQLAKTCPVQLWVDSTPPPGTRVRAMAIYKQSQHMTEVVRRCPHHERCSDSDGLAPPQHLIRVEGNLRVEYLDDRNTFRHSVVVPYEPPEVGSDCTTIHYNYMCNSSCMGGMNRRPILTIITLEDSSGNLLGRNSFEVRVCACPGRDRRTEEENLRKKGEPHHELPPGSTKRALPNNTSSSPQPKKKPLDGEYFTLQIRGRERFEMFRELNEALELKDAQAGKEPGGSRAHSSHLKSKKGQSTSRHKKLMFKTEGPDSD

MCF7 [2] = test: Induction of apoptosis in human MCF7 cells assessed as activation of caspase 9 at 3 times IC50 after 16 to 36 hrs by immunoblotting; assay type: functional, cell-based
MCF7 [3] = test: Antiproliferative activity against human MCF7 cells after 3 days by sulforhodamine-B colorimetric assay; assay type: functional, cell-based; details: MCF7, 72 h
MCF7 [4] = test: Induction of apoptosis in human MCF7 cells at 3 times IC50 after 48 hrs by using Annexin V-FITC staining by flow cytometry (reference value: 0.92 +/- 1.29 %); assay type: functional
MCF7 [5] = test: Cell cycle arrest in human MCF7 cells assessed as accumulation at G0/G1 phase after 48 hrs by flow cytometry (reference value: 62.79 +/- 1.30 %); assay type: functional
MCF7 [6] = test: Cell cycle arrest in human MCF7 cells assessed as accumulation at […] phase after 48 hrs by flow cytometry (reference value: 19.29 +/- 1.68 %); assay type: functional
MCF7 [7] = test: Cell cycle arrest in human MCF7 cells assessed as accumulation at G2/M phase after 48 hrs by flow cytometry (reference value: 13.26 +/- 2.98 %); assay type: functional
[8] = biological target: Eukaryotic translation initiation factor 2 subunit 1 (Homo sapiens) (UniProt P05198); test: Induction of eIF2alpha phosphorylation in human MCF7 cells at 3 times IC50 after 36 hrs by Western blot analysis; assay type: cell-based
Eukaryotic translation initiation factor 2 subunit 1 (Homo sapiens), sequence (P05198 whole entry): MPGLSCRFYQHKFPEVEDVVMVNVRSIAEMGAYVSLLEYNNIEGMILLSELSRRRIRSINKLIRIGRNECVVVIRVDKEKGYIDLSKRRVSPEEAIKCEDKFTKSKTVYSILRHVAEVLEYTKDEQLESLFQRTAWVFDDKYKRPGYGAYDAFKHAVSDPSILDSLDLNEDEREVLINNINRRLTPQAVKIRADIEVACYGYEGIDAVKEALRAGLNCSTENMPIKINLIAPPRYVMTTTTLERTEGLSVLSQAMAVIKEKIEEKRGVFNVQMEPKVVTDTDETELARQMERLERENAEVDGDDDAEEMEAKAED

Row | SMILES | Activity [1] | Activity (MCF7 [2]) | IC50 (MCF7 [3]) [µM] | Activity (MCF7 [4]) [%] | Activity (MCF7 [5]) [%] | Activity (MCF7 [6]) [%] | Activity (MCF7 [7]) [%] | Activity [8]
1 | CC(=O)O[C@H]1C(=O)[C@@]2(C)[C@H]([C@H](OC(=O)c3ccccc3)[C@]3(O)C[C@H](OC(=O)[C@H](O)[C@@H](NC(=O)c4ccccc4)c4ccccc4)C(C)=C1C3(C)C)[C@]1(OC(C)=O)CO[C@@H]1C[C@@H]2O | inactive | Active | – | – | – | – | – | –
2 | Clc1ncnc2c1ncn2CC1COc2ccccc2S1 (racemic) | – | – | 10.6 | – | – | – | – | –
3 | Brc1ncnc2c1ncn2CC1COc2ccccc2S1 (racemic) | – | – | 6.18 | – | – | – | – | –
4 | Clc1nc(Cl)c2ncn(CC3COc4ccccc4S3)c2n1 (racemic) | – | – | 8.97 | – | – | – | – | –
5 | Clc1ncnc2c1ncn2CC1CSc2ccccc2O1 (racemic) | inactive | Active | 9.24 | 37.99 | 62.87 | 13.77 | 23.35 | Active
6 | Brc1ncnc2c1ncn2CC1CSc2ccccc2O1 (racemic) | inactive | Active | 4.87 | 14.33 | 51.56 | 17.06 | 31.37 | Active
7 | Clc1nc(Cl)c2ncn(CC3CSc4ccccc4O3)c2n1 (racemic) | inactive | Active | 2.75 | 70.08 | 45.28 | 10.83 | 43.89 | Active
8 | Nc1ncnc2c1ncn2CC1CSc2ccccc2O1 (racemic) | – | – | > 30 | – | – | – | – | –
9 | Clc1ncnc2c1ncn2CC1COc2ccccc2O1 (racemic) | – | – | 18.8 | – | – | – | – | –
10 | Brc1ncnc2c1ncn2CC1COc2ccccc2O1 (racemic) | – | – | 7.64 | 21.66 | 53.02 | 10.27 | 36.71 | –
11 | Clc1nc(Cl)c2ncn(CC3COc4ccccc4O3)c2n1 (racemic) | – | – | 19.6 | – | – | – | – | –
12 | Nc1ncnc2c1ncn2CC1COc2ccccc2O1 (racemic) | – | – | > 30 | – | – | – | – | –
